# Activity calls are given as the source filed them.
# Assays:
# [1] = molecular target: Peroxisome proliferator-activated receptor gamma/Nuclear receptor coactivator 3 (Homo sapiens, UniProt P37231); assay: (§1) TR-FRET dose response biochemical High Throughput Screening assay for agonists of the steroid receptor coactivator 3 (SRC-3) recruitment by the peroxisome proliferator-activated receptor gamma (PPAR gamma): non-selective agonists. [Related pubchem assays: 1301 (Confirmation screen.), 1048 (Primary screen.)]; format: functional
# [2] = molecular target: T1, Heat shock factor protein 1 (Mus musculus, UniProt P38532); assay: enhancement of HSF1-driven luciferase signal – cell-based, NIH3T3, luminescence, dose retest, confirmation (AID 435004); format: functional;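 further: stress induced by proteasome inhibitor MG132 added 30 min after compound; luciferase reporter driven by HSF1 response element in NIH3T3 cells; actives raise luminescence as potentiators of the MG132 stress response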
# T1 sequence (P38532 whole entry): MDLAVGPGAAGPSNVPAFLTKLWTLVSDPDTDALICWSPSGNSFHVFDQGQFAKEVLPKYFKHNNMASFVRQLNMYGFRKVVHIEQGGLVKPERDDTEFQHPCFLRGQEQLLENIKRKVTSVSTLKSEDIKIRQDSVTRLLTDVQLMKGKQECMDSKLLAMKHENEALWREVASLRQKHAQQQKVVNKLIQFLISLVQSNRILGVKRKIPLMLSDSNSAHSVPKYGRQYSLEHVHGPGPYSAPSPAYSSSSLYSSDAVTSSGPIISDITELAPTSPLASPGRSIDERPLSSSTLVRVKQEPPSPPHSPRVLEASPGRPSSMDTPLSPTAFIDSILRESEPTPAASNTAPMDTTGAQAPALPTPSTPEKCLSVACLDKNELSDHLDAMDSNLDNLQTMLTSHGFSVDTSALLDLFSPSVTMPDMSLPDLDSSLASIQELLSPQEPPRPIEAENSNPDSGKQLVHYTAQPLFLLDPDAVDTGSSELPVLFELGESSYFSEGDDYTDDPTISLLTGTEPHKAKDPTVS
# [3] = molecular target: Peroxisome proliferator-activated receptor gamma/Nuclear receptor coactivator 1 (Homo sapiens, UniProt P37231); assay: as §1, with “1 (SRC-1)” for “3 (SRC-3)”, “assays (depositor defined):AID1300, AID1808, AID504735, AID631]” for “assays: 1301 (Confirmation screen.), 1048 (Primary screen.)]”; format: protein assay
# [4] = molecular target: Peroxisome proliferator-activated receptor gamma/Nuclear receptor coactivator 2 (Homo sapiens, UniProt P37231); assay: TR-FRET dose response biochemical High Throughput Screening assay for agonists of the steroid receptor coactivator 2 (SRC-2) recruitment by the peroxisome proliferator-activated receptor gamma (PPAR gamma): non-selective agonists. [Related pubchem assays: 1297, 1032 ]; format: functional
# Vero [5] = assay: cells; format: functional, cell-based; conditions: Chlorocebus sabaeus
# [6] = Trypanosoma cruzi growth suppression in host cells – NIH3T3 host cells, beta-gal luminescence, confirmation (AID 2044); format: functional, cell-based;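 further: intracellular parasites grown in NIH/3T3 mouse fibroblasts as host cells; luminescent beta-galactosidase reporter signal from transgenic T. cruzi replicating inside host cells; inhibitors lower the luminescence signal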
# [7] = NIH3T3 cell viability loss – ATP luminescence, mouse fibroblasts, counter-screen, dose response (AID 2010); format: functional, cell-based;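 further: cells exposed to compound for about 90 hours before reading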
# Vero [8] = assay: cells; format: functional; conditions: Chlorocebus sabaeus
# HEK293 = assay: EBV LMP1 TES2 canonical NF-kB signalling blockers – cell-based, HEK293, luciferase, cherry-pick, dose response (AID 588343); format: functional; conditions: Homo sapiens
# [9] = molecular target: T2, Lytic switch protein BZLF1 (Epstein-Barr virus (strain B95-8) (HHV-4) (Human herpesvirus 4), UniProt P03206); assay: inhibition of BZLF1 ZTA DNA binding – biochemical, fluorescence polarization, Epstein-Barr virus, 1536-well, counter-screen for EBNA-1 inhibitor project, dose response (AID 2377); design: species or system human gammaherpesvirus 4;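 further: fluorescence polarization of Cy5-labelled ZRE DNA probe bound by purified Zta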
# T2 sequence (P03206 whole entry): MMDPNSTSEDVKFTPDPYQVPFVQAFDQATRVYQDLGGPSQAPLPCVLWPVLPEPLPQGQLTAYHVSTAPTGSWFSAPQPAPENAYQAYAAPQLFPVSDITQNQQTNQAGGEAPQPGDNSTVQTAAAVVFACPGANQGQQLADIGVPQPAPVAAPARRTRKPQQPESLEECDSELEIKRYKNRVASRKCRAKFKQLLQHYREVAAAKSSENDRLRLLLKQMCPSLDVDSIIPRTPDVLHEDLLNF
# [10] = molecular target: T3, Epstein-Barr nuclear antigen 1 (Epstein-Barr virus (strain B95-8) (HHV-4) (Human herpesvirus 4), UniProt P03211); assay: inhibition of EBV nuclear antigen 1 DNA binding – biochemical, fluorescence polarization, 1536-well, dose response (AID 2381); design: species or system human gammaherpesvirus 4;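 further: fluorescence polarization of a Cy5 DNA probe bound by EBNA-1 protein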
# T3 sequence (P03211 whole entry): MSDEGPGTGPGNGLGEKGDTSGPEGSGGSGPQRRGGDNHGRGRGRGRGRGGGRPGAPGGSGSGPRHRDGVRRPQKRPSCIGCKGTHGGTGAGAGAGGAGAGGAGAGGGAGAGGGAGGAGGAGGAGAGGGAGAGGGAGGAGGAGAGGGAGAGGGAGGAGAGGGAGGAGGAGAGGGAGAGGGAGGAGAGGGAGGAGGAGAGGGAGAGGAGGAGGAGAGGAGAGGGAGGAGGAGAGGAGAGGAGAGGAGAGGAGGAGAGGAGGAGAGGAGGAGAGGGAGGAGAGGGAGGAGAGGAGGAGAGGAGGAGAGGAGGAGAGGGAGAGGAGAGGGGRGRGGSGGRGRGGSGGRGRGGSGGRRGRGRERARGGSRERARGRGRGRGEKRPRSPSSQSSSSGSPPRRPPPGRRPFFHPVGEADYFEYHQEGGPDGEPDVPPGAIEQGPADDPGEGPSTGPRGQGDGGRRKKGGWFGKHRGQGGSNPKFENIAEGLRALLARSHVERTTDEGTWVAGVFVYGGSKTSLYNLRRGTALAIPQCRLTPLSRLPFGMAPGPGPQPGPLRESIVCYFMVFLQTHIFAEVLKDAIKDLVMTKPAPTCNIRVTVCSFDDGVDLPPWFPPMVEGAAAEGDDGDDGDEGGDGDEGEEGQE
# Prothrombin = Prothrombin (Homo sapiens, UniProt P00734); assay: Thrombin 1536 HTS Dose Response Confirmation. [Related pubchem assays: 1046 (Thrombin 1536 HTS; hits were confirmed in this assay)]; format: functional
# Cytochrome P450 2D6 = Cytochrome P450 2D6 (Homo sapiens, UniProt P10635);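 further: CYP2D6 member of a cytochrome P450 panel assay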
# [11] = molecular target: DNA dC->dU-editing enzyme APOBEC-3A (Homo sapiens, UniProt P31941); assay: Dose Response confirmation of small molecule APOBEC3A DNA Deaminase Inhibitors via a fluorescence-based single-stranded DNA deaminase assay. [Related pubchem assays (depositor defined):AID493011, AID493024]; format: functional
# [12] = molecular target: DNA dC->dU-editing enzyme APOBEC-3G (Homo sapiens, UniProt Q9HC16); format: functional;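 further: Dose-response counterscreen measuring inhibition of APOBEC3G DNA deaminase activity, run while confirming APOBEC3A inhibitors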
# [13] = DRD fibroblast viability loss – cell-based, non-viral oncogenic, luminescence, dose response (AID 1934); format: functional; conditions: Homo sapiens
# BJ [14] = assay: BJ-TERT fibroblast viability loss – cell-based, RAS-independent, luminescence, dose response (AID 1933); format: functional; conditions: Homo sapiens
# BJ [15] = assay: BJ-TERT-LT-ST fibroblast viability loss – cell-based, RAS-independent, luminescence, dose response (AID 1935); format: functional; conditions: Homo sapiens;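 further: BJ fibroblasts immortalized with TERT plus LT and ST oncogenes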
# BJ [16] = assay: cells; format: functional, cell-based; conditions: Homo sapiens
# [17] = Luminescence Cell-Based Dose Confirmation HTS to Identify Inhibitors of Platelet Dense Granule Release. [Related pubchem assays: 1663 (Primary HTS), 1678 (Summary of Project)]; format: functional
# [18] = molecular target: Luciferin 4-monooxygenase (Photinus pyralis, UniProt P08659); assay: inhibition of purified Photinus pyralis luciferase – biochemical, luminescence, dose response (AID 1891)
# Beta-galactosidase = Beta-galactosidase (Escherichia coli, UniProt Q8VNN2); assay: PubChem AID 485352; format: functional
# [19] = molecular target: T4, Type-1 angiotensin II receptor (Homo sapiens, UniProt P30556); assay: antagonism of angiotensin II type 1 receptor – cell-based, uHTS hits, selectivity assay for APJ receptor antagonist project, dose response (AID 463214); format: functional;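 further: antagonist potency against angiotensin II stimulated AT1 response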
# T4 sequence (P30556 whole entry): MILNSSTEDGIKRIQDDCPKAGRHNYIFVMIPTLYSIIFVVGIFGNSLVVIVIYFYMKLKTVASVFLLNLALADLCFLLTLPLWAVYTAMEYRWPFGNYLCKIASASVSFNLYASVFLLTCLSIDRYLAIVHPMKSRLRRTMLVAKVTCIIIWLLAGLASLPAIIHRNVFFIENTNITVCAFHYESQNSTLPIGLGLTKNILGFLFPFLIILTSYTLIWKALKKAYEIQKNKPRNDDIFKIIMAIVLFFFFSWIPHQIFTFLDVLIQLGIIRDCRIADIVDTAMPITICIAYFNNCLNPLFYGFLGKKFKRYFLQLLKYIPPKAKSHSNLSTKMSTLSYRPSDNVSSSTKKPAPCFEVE
# [20] = microbe, parasite or virus in culture; format: functional; conditions: Mycobacterium tuberculosis
# CAAX prenyl protease 2 = molecular target: T5, CAAX prenyl protease 2 (Saccharomyces cerevisiae S288c, UniProt Q03530); format: biochemical
# T5 sequence (Q03530 whole entry): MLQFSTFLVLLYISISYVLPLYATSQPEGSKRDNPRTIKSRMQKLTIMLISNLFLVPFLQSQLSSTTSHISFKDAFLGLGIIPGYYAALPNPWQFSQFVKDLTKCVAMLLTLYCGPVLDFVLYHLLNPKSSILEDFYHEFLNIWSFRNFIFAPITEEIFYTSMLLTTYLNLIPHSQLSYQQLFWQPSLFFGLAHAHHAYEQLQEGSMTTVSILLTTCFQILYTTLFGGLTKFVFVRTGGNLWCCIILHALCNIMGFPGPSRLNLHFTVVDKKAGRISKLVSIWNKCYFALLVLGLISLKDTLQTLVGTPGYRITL
# Paired box protein Pax-8 = Paired box protein Pax-8 (Homo sapiens, UniProt Q06710); assay: PAX8 transcriptional activity inhibition in RMG-I – RMG-I cells, luciferase, cherry-pick, dose response (AID 687027); format: functional, cell-based;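 further: luciferase reporter driven by Pax8 target thyroperoxidase promoter measured by SteadyGlo luminescence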
# [21] = HEK-293T viability loss after treatment – luminescence, T-cell screen hits, cytotoxicity control for TCR NF-kB inhibitor project, dose response (AID 489026); format: functional, cell-based;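 further: cells exposed to compound about 14 hours before the viability readout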
# [22] = Luminescence Cell-Based Dose Retest to Confirm Inhibitors of Cancer Stem Cells. [Related pubchem assays (depositor defined):AID2717, AID2721]; format: functional; conditions: Homo sapiens
# Chain of Peroxisome proliferator-activated receptor gamma/Nuclear receptor coactivator 3 (P37231 whole entry): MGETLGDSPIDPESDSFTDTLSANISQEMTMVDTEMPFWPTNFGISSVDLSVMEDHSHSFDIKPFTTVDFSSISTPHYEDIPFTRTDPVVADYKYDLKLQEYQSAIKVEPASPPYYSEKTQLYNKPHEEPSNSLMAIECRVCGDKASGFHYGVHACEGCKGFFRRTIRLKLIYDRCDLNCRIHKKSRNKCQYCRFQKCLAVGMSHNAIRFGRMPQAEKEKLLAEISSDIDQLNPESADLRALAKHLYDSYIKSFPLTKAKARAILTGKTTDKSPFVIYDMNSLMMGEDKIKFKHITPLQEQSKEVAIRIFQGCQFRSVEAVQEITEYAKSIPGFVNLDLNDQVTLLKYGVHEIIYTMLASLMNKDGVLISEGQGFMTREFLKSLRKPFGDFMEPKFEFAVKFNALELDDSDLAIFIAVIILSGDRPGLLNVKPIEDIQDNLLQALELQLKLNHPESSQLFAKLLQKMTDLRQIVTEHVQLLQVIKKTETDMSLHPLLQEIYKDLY
# Chain of Peroxisome proliferator-activated receptor gamma/Nuclear receptor coactivator 3 (Q9Y6Q9 whole entry, further chain): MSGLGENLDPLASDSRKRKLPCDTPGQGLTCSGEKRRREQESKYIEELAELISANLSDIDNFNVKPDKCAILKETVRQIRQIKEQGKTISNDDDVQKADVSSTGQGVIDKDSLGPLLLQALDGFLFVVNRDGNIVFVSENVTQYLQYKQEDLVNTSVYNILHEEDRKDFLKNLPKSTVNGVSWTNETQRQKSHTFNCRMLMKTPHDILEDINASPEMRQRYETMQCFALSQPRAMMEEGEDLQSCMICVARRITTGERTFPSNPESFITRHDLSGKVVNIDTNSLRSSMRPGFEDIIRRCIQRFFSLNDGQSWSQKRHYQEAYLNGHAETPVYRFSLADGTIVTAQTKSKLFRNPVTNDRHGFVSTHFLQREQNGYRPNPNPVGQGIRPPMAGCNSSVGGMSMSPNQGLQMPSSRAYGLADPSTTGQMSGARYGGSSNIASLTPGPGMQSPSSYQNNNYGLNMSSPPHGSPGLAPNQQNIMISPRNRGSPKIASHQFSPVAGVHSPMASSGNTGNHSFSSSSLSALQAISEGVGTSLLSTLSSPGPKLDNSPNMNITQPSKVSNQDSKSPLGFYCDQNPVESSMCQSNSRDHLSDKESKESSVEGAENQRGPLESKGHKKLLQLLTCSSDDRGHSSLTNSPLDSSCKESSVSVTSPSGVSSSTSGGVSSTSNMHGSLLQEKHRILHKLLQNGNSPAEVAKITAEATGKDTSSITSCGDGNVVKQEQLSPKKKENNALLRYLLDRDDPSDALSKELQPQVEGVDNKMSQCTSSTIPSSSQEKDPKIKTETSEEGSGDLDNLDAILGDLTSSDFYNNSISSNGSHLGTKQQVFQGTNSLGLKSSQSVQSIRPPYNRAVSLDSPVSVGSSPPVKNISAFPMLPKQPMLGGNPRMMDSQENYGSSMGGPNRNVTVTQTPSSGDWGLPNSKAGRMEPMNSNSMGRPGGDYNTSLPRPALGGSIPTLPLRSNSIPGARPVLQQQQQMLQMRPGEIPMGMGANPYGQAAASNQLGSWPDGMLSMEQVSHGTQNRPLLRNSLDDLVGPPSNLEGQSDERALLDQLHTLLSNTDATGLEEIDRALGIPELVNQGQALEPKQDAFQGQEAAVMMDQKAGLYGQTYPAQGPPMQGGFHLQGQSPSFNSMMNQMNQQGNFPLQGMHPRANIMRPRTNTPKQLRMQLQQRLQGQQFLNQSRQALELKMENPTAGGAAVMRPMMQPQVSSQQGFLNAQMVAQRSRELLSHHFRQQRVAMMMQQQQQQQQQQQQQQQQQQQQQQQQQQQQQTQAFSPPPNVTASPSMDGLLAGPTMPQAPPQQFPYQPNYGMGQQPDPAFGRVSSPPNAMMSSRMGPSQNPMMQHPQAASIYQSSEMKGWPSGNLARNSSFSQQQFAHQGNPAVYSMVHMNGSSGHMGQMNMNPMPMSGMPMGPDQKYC
# Chain of Peroxisome proliferator-activated receptor gamma/Nuclear receptor coactivator 2 (P37231 whole entry): as the sequence (P37231 whole entry) above
# Chain of Peroxisome proliferator-activated receptor gamma/Nuclear receptor coactivator 2 (Q15596 whole entry, further chain): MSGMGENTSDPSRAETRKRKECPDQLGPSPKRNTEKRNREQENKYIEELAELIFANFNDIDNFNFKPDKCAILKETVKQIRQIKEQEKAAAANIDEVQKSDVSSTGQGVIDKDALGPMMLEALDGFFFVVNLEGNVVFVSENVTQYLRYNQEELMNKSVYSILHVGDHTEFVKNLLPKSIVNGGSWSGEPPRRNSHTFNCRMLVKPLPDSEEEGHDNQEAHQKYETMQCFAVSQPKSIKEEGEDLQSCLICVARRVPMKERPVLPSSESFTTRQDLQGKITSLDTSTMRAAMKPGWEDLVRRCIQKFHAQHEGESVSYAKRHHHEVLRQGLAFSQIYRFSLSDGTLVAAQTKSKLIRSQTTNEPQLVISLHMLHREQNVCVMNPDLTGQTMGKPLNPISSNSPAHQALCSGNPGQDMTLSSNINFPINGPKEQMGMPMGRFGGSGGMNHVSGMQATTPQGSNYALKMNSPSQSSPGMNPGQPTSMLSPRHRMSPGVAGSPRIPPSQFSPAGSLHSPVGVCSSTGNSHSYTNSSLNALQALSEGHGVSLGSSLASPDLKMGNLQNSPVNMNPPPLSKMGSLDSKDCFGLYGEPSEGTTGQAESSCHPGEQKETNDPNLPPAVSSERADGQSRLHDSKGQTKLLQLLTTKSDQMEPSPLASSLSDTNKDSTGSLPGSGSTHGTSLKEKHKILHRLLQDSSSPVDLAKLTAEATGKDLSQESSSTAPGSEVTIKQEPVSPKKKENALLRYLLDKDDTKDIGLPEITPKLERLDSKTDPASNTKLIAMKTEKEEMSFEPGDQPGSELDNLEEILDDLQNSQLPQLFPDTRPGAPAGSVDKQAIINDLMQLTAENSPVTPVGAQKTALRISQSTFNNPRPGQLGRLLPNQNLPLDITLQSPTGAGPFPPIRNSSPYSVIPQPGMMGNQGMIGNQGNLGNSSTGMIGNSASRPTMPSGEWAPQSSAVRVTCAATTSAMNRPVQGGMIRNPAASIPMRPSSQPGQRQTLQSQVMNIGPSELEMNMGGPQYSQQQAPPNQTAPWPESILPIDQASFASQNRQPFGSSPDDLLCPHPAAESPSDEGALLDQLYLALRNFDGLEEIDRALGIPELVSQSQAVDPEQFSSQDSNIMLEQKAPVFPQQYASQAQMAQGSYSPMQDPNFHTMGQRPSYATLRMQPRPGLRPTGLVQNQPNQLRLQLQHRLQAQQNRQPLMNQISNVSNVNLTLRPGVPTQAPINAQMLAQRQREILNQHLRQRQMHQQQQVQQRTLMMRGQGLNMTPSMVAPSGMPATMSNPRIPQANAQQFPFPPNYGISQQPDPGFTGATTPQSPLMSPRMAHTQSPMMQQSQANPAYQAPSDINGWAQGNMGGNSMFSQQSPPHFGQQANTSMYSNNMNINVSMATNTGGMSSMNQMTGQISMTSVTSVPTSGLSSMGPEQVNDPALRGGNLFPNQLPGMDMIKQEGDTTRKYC
# Chain of Beta-galactosidase (Q8VNN2 whole entry): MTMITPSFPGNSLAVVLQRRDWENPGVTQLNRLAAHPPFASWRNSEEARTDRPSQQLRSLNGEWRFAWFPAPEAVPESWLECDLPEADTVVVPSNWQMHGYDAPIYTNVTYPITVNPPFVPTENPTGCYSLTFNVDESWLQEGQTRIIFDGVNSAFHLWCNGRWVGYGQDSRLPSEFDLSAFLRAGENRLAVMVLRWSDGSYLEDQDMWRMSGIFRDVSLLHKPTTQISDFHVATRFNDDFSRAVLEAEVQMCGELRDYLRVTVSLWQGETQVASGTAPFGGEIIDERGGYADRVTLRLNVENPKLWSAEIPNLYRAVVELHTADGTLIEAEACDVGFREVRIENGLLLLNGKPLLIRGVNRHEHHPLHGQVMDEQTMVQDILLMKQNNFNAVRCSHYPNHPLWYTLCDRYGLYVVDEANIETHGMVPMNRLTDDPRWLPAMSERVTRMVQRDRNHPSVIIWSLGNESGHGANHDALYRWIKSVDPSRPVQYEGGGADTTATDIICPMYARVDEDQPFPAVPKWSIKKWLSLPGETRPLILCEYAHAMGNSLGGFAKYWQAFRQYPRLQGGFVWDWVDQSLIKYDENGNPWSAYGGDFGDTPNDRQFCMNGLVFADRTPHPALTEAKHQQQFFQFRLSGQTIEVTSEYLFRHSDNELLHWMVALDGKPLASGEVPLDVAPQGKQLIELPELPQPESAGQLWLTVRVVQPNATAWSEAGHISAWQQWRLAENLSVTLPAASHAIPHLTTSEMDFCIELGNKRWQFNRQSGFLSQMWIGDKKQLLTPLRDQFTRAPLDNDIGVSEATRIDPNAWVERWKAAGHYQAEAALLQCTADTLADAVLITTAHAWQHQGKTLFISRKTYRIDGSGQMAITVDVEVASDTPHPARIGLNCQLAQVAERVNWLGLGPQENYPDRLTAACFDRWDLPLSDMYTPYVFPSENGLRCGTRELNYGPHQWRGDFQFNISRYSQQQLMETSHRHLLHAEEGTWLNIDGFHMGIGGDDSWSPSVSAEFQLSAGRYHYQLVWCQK
compound,measurement,setting,value
COc1ccc2nc(SC)c(C#N)cc2c1,EC50,[1],41.8 µM (not active)
same,EC50,[2],> 260 µM (inactive)
same,EC50,[3],14.1 µM (inactive)
same,EC50,[4],12.3 µM (not active)
CN(C)CCCNC(=O)/C=C/c1ccc(OCc2c(F)cccc2Cl)cc1,IC50,Vero [5],23.5 µM (active)
same,EC50,[6],0.327 µM (active)
same,EC50,[7],8.47 µM (active)
same,CC50,Vero [8],> 25 µM (active)
CC(=O)c1c(C)[nH]c(C(=O)Nc2ccc(C)cn2)c1C,AC50,HEK293,1.7 µM (active)
COc1ccccc1Nc1ncc(C(=O)Nc2ccc(OC)c(OC)c2)c2ccccc12,IC50,[9],> 111 µM (not active)
same,IC50,[10],16.5 µM (not active)
CCn1c(SCC(N)=O)nnc1C(C)C,IC50,Prothrombin,> 50 µM (not active)
CCCC(=O)Nc1ccc2nc(SCC(=O)Nc3ccc(N4CCOCC4)c(Cl)c3)sc2c1,IC50,[9],> 111 µM (not active)
same,AC50,Cytochrome P450 2D6,10 µM (inconclusive)
same,IC50,[11],4.33 µM (active)
same,IC50,[12],4.72 µM (active)
same,IC50,[10],> 148 µM (not active)
COc1cccc(/C=N/Nc2ncccc2[N+](=O)[O-])c1OC,EC50,[13],13.5 µM (active)
same,EC50,BJ [14],17.6 µM (active)
same,EC50,BJ [15],> 150 µM (not active)
same,EC50,BJ [16],15.6 µM (inconclusive)
same,AC50,HEK293,1.8 µM (active)
same,EC50,[17],3.32 µM (active)
same,EC50,[18],5.27 µM (active)
O=C(CSc1nnc(-c2ccccc2)c(-c2ccccc2)n1)Nc1ccc(Br)cn1,IC50,Prothrombin,> 50 µM (inconclusive)
CC(=O)/N=c1\sc2nc3ccccc3nc2n1N(C(C)=O)C(C)=O,EC50,[1],> 79.4 µM (not active)
same,EC50,[3],25.2 µM (inactive)
same,EC50,[4],22.9 µM (not active)
Cc1ccc(-c2nc3ccccc3[nH]2)cc1NC(=O)c1sc2cc(Cl)ccc2c1Cl,IC50,[9],> 111 µM (not active)
same,EC50,[6],0.642 µM (active)
same,IC50,[10],13 µM (not active)
same,EC50,[7],> 60 µM (inconclusive)
Cc1ccc(N2CC(C(=O)N/N=C/c3cccc([N+](=O)[O-])c3)CC2=O)cc1 (stereo not drawn),IC50,Prothrombin,> 50 µM (not active)
O=C(CN1C(=O)c2ccccc2C1=O)NCC(=O)OCC(=O)c1cccc([N+](=O)[O-])c1,EC50,Beta-galactosidase,> 40 µM (inactive)
same,IC50,[19],17.4 µM (active)
Cc1onc(-c2ccccc2Cl)c1C(=O)Nc1nnc(-c2ccc(Br)cc2)s1,EC50,[1],> 79.4 µM (not active)
same,EC50,[3],> 79.4 µM (inactive)
same,EC50,[4],45 µM (not active)
O=C(Nc1ccc(N2CCOCC2)cc1)C1CCN(S(=O)(=O)c2ccccc2F)CC1,IC50,Prothrombin,> 50 µM (not active)
CCCCOC(=O)C(C)Nc1n[nH]c(=S)[nH]c1=O (stereo not drawn),EC50,[1],> 79.4 µM (not active)
same,EC50,[3],17.3 µM (inactive)
same,EC50,[4],16.3 µM (not active)
COc1ccc(CN2CCN(C(c3ccc(F)cc3)c3ccc(F)cc3)CC2)c(OC)c1OC,CC50,[20],> 40 µM (active)
same,AC50,CAAX prenyl protease 2,4.67 µM (active)
CCOC(=O)c1oc2ccccc2c1NC(=O)c1ccc(S(=O)(=O)N(C)C)cc1,IC50,[9],> 111 µM (not active)
same,IC50,[10],16.6 µM (not active)
CNC(=S)NNC(=O)c1sccc1OCc1cccc(C(F)(F)F)c1,IC50,[9],> 111 µM (not active)
same,IC50,[10],9.69 µM (active)
O[C@@H]1[C@@H](O)C=C2CCN3Cc4cc5c(cc4[C@H]1C23)OCO5 (stereo partly drawn),IC50,Vero [5],> 25 µM (active)
same,AC50,Paired box protein Pax-8,1.88 µM (active)
same,CC50,Vero [8],5.86 µM (active)
same,IC50,[21],> 80 µM (inactive)
O=C(Nc1nc(-c2ccc(S(=O)(=O)N3CCCCCC3)cc2)cs1)c1ccccc1,EC50,[1],40.9 µM (not active)
same,EC50,[3],13.3 µM (inactive)
same,EC50,[4],15.8 µM (not active)
COc1cc(/C=C/c2ccc3cccc(OC)c3n2)c(OC(C)=O)c([N+](=O)[O-])c1,AC50,[22],7.38 µM (active)
same,EC50,Beta-galactosidase,26.9 µM (active)
same,IC50,[19],10.2 µM (active)

# — ChEMBL document CHEMBL1201862, “PubChem BioAssay data set” (2004)
